Measurements taken from US11007270B2, “Polymer-semaxanib moiety conjugates” (Nektar Therapeutics, priority 2010, dated 2021).
Where “and” joins values, the source holds several entries; their conditions need not be identical. Equal values may be shown once. Read-outs that look alike come from different tables or passages of the source. Values belong to the compound of their own block, whether it stands above or below them.

Experiments:
[1] = target: RET (Homo sapiens, UniProt P07949); assay: RET kinase inhibition, Caliper screening (fluorescent substrate phosphorylation, electrophoretic separation); conditions: for RET Fold: fold of IC50 relative to sunitinib
[2] = target: c-Kit (Homo sapiens, UniProt P10721); assay: c-Kit tyrosine kinase inhibition, Caliper screening (fluorescent substrate phosphorylation, electrophoretic separation); type: biochemical; conditions: for IC50: averages of replicate wells; for c-Kit Fold: fold of IC50 relative to sunitinib
[3] = target: VEGFR-2 (Homo sapiens, UniProt P35968); assay: VEGFR-2 kinase inhibition, Caliper screening (fluorescent substrate phosphorylation, electrophoretic separation); conditions: for VEGFR-2 Fold: fold of IC50 relative to sunitinib
[4] = concentration 1.0E−05 (unit not given)
[5] = concentration 1.0E−06 (unit not given)
[6] = concentration 1.0E−07 (unit not given)
[7] = concentration 1.0E−08 (unit not given)
[8] = concentration 1.0E−09 (unit not given)
[9] = concentration 1.0E−10 (unit not given)
[10] = concentration 3.0E−05 (unit not given)
[11] = concentration 3.0E−06 (unit not given)
[12] = concentration 3.0E−07 (unit not given)
[13] = concentration 3.0E−08 (unit not given)
[14] = concentration 3.0E−09 (unit not given)
[15] = concentration 3.0E−10 (unit not given)

Sequence of c-Kit (P10721 26-976): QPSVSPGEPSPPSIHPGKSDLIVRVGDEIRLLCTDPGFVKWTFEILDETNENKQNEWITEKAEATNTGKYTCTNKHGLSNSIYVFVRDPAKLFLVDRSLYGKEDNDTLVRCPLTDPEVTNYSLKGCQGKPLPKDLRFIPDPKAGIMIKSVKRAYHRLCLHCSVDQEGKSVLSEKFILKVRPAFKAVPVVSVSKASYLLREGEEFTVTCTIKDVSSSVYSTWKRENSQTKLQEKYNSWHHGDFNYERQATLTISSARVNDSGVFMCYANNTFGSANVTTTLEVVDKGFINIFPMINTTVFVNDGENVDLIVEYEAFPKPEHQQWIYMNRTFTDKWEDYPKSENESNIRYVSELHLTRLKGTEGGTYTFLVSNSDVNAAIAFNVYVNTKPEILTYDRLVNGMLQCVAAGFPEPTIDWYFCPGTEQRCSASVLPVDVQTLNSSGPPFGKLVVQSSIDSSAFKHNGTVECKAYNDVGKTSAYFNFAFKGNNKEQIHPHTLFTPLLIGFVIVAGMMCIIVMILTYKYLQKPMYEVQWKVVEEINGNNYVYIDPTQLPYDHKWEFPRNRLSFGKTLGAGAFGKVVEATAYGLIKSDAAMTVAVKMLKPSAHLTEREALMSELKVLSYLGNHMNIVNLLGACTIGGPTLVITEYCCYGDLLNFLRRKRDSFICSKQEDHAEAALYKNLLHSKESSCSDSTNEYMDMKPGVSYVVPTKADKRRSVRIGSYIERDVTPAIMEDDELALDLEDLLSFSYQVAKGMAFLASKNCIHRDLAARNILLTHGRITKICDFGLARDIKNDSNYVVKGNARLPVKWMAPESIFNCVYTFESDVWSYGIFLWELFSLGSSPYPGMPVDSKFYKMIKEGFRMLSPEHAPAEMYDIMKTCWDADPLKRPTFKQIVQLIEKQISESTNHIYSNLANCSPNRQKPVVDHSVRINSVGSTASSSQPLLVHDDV
Sequence of RET (P07949 29-1114, species assumed): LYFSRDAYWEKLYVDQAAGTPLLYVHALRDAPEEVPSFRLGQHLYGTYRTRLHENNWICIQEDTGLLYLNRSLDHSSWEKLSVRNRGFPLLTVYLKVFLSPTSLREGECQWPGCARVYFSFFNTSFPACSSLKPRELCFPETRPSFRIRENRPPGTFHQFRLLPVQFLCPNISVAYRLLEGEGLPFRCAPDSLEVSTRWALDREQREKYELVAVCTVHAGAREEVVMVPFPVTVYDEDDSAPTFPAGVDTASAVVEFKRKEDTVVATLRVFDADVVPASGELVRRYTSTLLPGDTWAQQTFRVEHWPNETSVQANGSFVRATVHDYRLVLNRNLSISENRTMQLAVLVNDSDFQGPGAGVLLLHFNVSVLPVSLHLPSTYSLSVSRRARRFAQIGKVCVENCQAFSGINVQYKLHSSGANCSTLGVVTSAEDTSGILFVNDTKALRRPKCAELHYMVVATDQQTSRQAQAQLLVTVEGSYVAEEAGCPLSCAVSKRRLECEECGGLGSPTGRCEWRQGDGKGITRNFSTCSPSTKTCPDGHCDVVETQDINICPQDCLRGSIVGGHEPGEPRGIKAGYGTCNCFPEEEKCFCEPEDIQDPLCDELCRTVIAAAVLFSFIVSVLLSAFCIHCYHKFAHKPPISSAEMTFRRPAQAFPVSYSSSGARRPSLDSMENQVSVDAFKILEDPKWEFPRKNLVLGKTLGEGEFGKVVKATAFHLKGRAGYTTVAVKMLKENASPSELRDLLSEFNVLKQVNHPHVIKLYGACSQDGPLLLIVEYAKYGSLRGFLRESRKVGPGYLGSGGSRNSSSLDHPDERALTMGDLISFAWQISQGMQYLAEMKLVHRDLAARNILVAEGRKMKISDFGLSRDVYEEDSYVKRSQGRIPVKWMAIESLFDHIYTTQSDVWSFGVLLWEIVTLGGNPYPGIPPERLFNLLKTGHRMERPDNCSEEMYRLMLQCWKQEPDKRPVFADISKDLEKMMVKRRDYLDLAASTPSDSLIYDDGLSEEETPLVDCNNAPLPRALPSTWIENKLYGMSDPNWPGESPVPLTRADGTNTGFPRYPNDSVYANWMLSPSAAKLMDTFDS
Sequence of VEGFR-2 (P35968 20-1356, species assumed): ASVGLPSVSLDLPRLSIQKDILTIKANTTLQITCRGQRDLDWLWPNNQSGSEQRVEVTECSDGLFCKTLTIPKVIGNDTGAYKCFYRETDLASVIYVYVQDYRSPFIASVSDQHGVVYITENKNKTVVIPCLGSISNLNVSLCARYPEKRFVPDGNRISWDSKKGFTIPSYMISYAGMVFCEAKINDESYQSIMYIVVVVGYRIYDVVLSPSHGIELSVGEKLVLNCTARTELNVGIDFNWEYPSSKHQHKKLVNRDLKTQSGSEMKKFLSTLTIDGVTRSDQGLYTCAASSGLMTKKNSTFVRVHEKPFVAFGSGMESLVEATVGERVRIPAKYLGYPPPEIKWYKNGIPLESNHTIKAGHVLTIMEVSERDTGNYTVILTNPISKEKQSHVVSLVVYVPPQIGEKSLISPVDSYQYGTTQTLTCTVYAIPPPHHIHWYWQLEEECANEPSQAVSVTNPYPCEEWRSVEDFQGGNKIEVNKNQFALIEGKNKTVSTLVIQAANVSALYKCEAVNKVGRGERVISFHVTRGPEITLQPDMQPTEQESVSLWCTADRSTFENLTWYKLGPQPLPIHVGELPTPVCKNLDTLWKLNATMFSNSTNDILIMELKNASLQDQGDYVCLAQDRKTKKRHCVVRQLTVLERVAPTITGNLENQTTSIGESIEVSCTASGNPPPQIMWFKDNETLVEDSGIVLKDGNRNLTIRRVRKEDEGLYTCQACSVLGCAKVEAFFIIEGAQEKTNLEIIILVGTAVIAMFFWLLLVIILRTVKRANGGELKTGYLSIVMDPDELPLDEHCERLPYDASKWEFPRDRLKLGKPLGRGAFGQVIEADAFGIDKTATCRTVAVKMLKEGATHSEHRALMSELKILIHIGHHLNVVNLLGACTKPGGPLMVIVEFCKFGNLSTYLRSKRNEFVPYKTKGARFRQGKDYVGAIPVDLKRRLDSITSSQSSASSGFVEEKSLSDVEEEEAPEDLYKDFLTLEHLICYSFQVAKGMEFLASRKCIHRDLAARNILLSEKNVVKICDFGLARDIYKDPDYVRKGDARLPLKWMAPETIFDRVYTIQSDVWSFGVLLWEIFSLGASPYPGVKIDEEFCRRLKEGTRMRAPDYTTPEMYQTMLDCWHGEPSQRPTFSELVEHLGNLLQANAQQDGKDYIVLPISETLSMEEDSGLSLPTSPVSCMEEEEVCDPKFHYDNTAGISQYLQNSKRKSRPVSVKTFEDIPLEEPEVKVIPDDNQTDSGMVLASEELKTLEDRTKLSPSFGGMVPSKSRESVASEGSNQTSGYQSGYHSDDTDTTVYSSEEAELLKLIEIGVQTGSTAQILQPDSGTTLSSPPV

SMILES: COCCOCCOCCNC(=O)c1c(C)[nH]c(/C=C2\C(=O)Nc3ccc(F)cc32)c1C [mPEG3-semaxanib, (Z)-5-((5-fluoro-2-oxoindolin-3-ylidene)methyl)-2,4-dimethyl-1H-pyrrole-3-mPEG3-amide]
IC50 [1]: 230 nM
RET AVG % Activity at Specific Concentration [1, 4]: −1%
RET AVG % Activity at Specific Concentration [1, 5]: 12%
RET AVG % Activity at Specific Concentration [1, 6]: 68%
RET AVG % Activity at Specific Concentration [1, 7]: 96%
RET AVG % Activity at Specific Concentration [1, 8]: 92%
RET AVG % Activity at Specific Concentration [1, 9]: 92%
RET AVG % Activity at Specific Concentration [1, 10]: −1%
RET AVG % Activity at Specific Concentration [1, 11]: 3%
RET AVG % Activity at Specific Concentration [1, 12]: 38%
RET AVG % Activity at Specific Concentration [1, 13]: 90%
RET AVG % Activity at Specific Concentration [1, 14]: 95%
RET AVG % Activity at Specific Concentration [1, 15]: 94%
RET Fold [1]: 5.35
IC50 [2]: 120 nM
c-Kit AVG % Activity at Specific Concentration [2, 4]: −1%
c-Kit AVG % Activity at Specific Concentration [2, 5]: 2%
c-Kit AVG % Activity at Specific Concentration [2, 6]: 58%
c-Kit AVG % Activity at Specific Concentration [2, 7]: 97%
c-Kit AVG % Activity at Specific Concentration [2, 8]: 104%
c-Kit AVG % Activity at Specific Concentration [2, 9]: 100%
c-Kit AVG % Activity at Specific Concentration [2, 10]: −1%
c-Kit AVG % Activity at Specific Concentration [2, 11]: 1%
c-Kit AVG % Activity at Specific Concentration [2, 12]: 16%
c-Kit AVG % Activity at Specific Concentration [2, 13]: 88%
c-Kit AVG % Activity at Specific Concentration [2, 14]: 98%
c-Kit AVG % Activity at Specific Concentration [2, 15]: 102%
c-Kit Fold [2]: 1.60
IC50 [3]: 110 nM
VEGFR-2 AVG % Activity at Specific Concentration [3, 4]: −3%
VEGFR-2 AVG % Activity at Specific Concentration [3, 5]: 0%
VEGFR-2 AVG % Activity at Specific Concentration [3, 6]: 47%
VEGFR-2 AVG % Activity at Specific Concentration [3, 7]: 90%
VEGFR-2 AVG % Activity at Specific Concentration [3, 8]: 87%
VEGFR-2 AVG % Activity at Specific Concentration [3, 9]: 93%
VEGFR-2 AVG % Activity at Specific Concentration [3, 10]: −6%
VEGFR-2 AVG % Activity at Specific Concentration [3, 11]: −3%
VEGFR-2 AVG % Activity at Specific Concentration [3, 12]: 16%
VEGFR-2 AVG % Activity at Specific Concentration [3, 13]: 78%
VEGFR-2 AVG % Activity at Specific Concentration [3, 14]: 90%
VEGFR-2 AVG % Activity at Specific Concentration [3, 15]: 93%
VEGFR-2 Fold [3]: 2.24

SMILES: COCCOCCOCCOCCOCCNC(=O)c1c(C)[nH]c(/C=C2\C(=O)Nc3ccc(F)cc32)c1C [mPEG5-semaxanib, (Z)-5-((5-fluoro-2-oxoindolin-3-ylidene)methyl)-2,4-dimethyl-1H-pyrrole-3-mPEG5-amide]
IC50 [1]: 440 nM
RET AVG % Activity at Specific Concentration [1, 4]: 0%
RET AVG % Activity at Specific Concentration [1, 5]: 29%
RET AVG % Activity at Specific Concentration [1, 6]: 84%
RET AVG % Activity at Specific Concentration [1, 7]: 99%
RET AVG % Activity at Specific Concentration [1, 8]: 98%
RET AVG % Activity at Specific Concentration [1, 9]: 98%
RET AVG % Activity at Specific Concentration [1, 10]: −1%
RET AVG % Activity at Specific Concentration [1, 11]: 6%
RET AVG % Activity at Specific Concentration [1, 12]: 59%
RET AVG % Activity at Specific Concentration [1, 13]: 95%
RET AVG % Activity at Specific Concentration [1, 14]: 102%
RET AVG % Activity at Specific Concentration [1, 15]: 99%
RET Fold [1]: 10.23
IC50 [2]: 230 nM
c-Kit AVG % Activity at Specific Concentration [2, 4]: −1%
c-Kit AVG % Activity at Specific Concentration [2, 5]: 6%
c-Kit AVG % Activity at Specific Concentration [2, 6]: 76%
c-Kit AVG % Activity at Specific Concentration [2, 7]: 106%
c-Kit AVG % Activity at Specific Concentration [2, 8]: 100%
c-Kit AVG % Activity at Specific Concentration [2, 9]: 90%
c-Kit AVG % Activity at Specific Concentration [2, 10]: −1%
c-Kit AVG % Activity at Specific Concentration [2, 11]: 0%
c-Kit AVG % Activity at Specific Concentration [2, 12]: 37%
c-Kit AVG % Activity at Specific Concentration [2, 13]: 96%
c-Kit AVG % Activity at Specific Concentration [2, 14]: 99%
c-Kit AVG % Activity at Specific Concentration [2, 15]: 99%
c-Kit Fold [2]: 3.10

SMILES: COCCOCCOCCOCCOCCOCCNC(=O)c1c(C)[nH]c(/C=C2\C(=O)Nc3ccc(F)cc32)c1C [mPEG6-semaxanib, (Z)-5-((5-fluoro-2-oxoindolin-3-ylidene)methyl)-2,4-dimethyl-1H-pyrrole-3-mPEG6-amide]
IC50 [2]: 290 nM
c-Kit AVG % Activity at Specific Concentration [2, 4]: −1%
c-Kit AVG % Activity at Specific Concentration [2, 5]: 8%
c-Kit AVG % Activity at Specific Concentration [2, 6]: 79%
c-Kit AVG % Activity at Specific Concentration [2, 7]: 94%
c-Kit AVG % Activity at Specific Concentration [2, 8]: 97%
c-Kit AVG % Activity at Specific Concentration [2, 9]: 91%
c-Kit AVG % Activity at Specific Concentration [2, 10]: −1%
c-Kit AVG % Activity at Specific Concentration [2, 11]: 0%
c-Kit AVG % Activity at Specific Concentration [2, 12]: 44%
c-Kit AVG % Activity at Specific Concentration [2, 13]: 95%
c-Kit AVG % Activity at Specific Concentration [2, 14]: 99%
c-Kit AVG % Activity at Specific Concentration [2, 15]: 87%
c-Kit Fold [2]: 3.90
VEGFR-2 AVG % Activity at Specific Concentration [3]: 96% and 93%

The next lines start with the values.

IC50 [1]: 620 nM
RET AVG % Activity at Specific Concentration [1, 4]: 2%
RET AVG % Activity at Specific Concentration [1, 5]: 38%
RET AVG % Activity at Specific Concentration [1, 6]: 85%
RET AVG % Activity at Specific Concentration [1, 7]: 98%
RET AVG % Activity at Specific Concentration [1, 8]: 99%
RET AVG % Activity at Specific Concentration [1, 9]: 98%
RET AVG % Activity at Specific Concentration [1, 10]: 0%
RET AVG % Activity at Specific Concentration [1, 11]: 14%
RET AVG % Activity at Specific Concentration [1, 12]: 68%
RET AVG % Activity at Specific Concentration [1, 13]: 93%
RET AVG % Activity at Specific Concentration [1, 14]: 99%
RET AVG % Activity at Specific Concentration [1, 15]: 98%
RET Fold [1]: 14.42
IC50 [2]: 320 nM
c-Kit AVG % Activity at Specific Concentration [2, 4]: −1%
c-Kit AVG % Activity at Specific Concentration [2, 5]: 11%
c-Kit AVG % Activity at Specific Concentration [2, 6]: 82%
c-Kit AVG % Activity at Specific Concentration [2, 7]: 96%
c-Kit AVG % Activity at Specific Concentration [2, 8]: 97%
c-Kit AVG % Activity at Specific Concentration [2, 9]: 97%
c-Kit AVG % Activity at Specific Concentration [2, 10]: −1%
c-Kit AVG % Activity at Specific Concentration [2, 11]: 1%
c-Kit AVG % Activity at Specific Concentration [2, 12]: 49%
c-Kit AVG % Activity at Specific Concentration [2, 13]: 96%
c-Kit AVG % Activity at Specific Concentration [2, 14]: 98%
c-Kit AVG % Activity at Specific Concentration [2, 15]: 96%
c-Kit Fold [2]: 4.30
IC50 [3]: 310 nM
VEGFR-2 AVG % Activity at Specific Concentration [3, 4]: −3%
VEGFR-2 AVG % Activity at Specific Concentration [3, 5]: 19%
VEGFR-2 AVG % Activity at Specific Concentration [3, 6]: 80%
VEGFR-2 AVG % Activity at Specific Concentration [3, 7]: 95%
VEGFR-2 AVG % Activity at Specific Concentration [3, 8]: 95%
VEGFR-2 AVG % Activity at Specific Concentration [3, 9]: 98%
VEGFR-2 AVG % Activity at Specific Concentration [3, 10]: −6%
VEGFR-2 AVG % Activity at Specific Concentration [3, 11]: 0%
VEGFR-2 AVG % Activity at Specific Concentration [3, 12]: 46%
VEGFR-2 AVG % Activity at Specific Concentration [3, 13]: 90%
VEGFR-2 AVG % Activity at Specific Concentration [3, 14]: 93%
VEGFR-2 AVG % Activity at Specific Concentration [3, 15]: 94%
VEGFR-2 Fold [3]: 6.33
SMILES: COCCOCCOCCOCCOCCOCCOCCNC(=O)c1c(C)[nH]c(/C=C2\C(=O)Nc3ccc(F)cc32)c1C [mPEG7-semaxanib, (Z)-5-((5-fluoro-2-oxoindolin-3-ylidene)methyl)-2,4-dimethyl-1H-pyrrole-3-mPEG7-amide]

IC50 [1]: 350 nM
RET AVG % Activity at Specific Concentration [1, 4]: 0%
RET AVG % Activity at Specific Concentration [1, 5]: 22%
RET AVG % Activity at Specific Concentration [1, 6]: 78%
RET AVG % Activity at Specific Concentration [1, 7]: 99%
RET AVG % Activity at Specific Concentration [1, 8]: 89%
RET AVG % Activity at Specific Concentration [1, 9]: 100%
RET AVG % Activity at Specific Concentration [1, 10]: −1%
RET AVG % Activity at Specific Concentration [1, 11]: 5%
RET AVG % Activity at Specific Concentration [1, 12]: 52%
RET AVG % Activity at Specific Concentration [1, 13]: 95%
RET AVG % Activity at Specific Concentration [1, 14]: 100%
RET AVG % Activity at Specific Concentration [1, 15]: 99%
RET Fold [1]: 8.14
IC50 [2]: 170 nM
c-Kit AVG % Activity at Specific Concentration [2, 4]: −1%
c-Kit AVG % Activity at Specific Concentration [2, 5]: 3%
c-Kit AVG % Activity at Specific Concentration [2, 6]: 70%
c-Kit AVG % Activity at Specific Concentration [2, 7]: 97%
c-Kit AVG % Activity at Specific Concentration [2, 8]: 99%
c-Kit AVG % Activity at Specific Concentration [2, 9]: 97%
c-Kit AVG % Activity at Specific Concentration [2, 10]: −1%
c-Kit AVG % Activity at Specific Concentration [2, 11]: −1%
c-Kit AVG % Activity at Specific Concentration [2, 12]: 24%
c-Kit AVG % Activity at Specific Concentration [2, 13]: 94%
c-Kit AVG % Activity at Specific Concentration [2, 14]: 93%
c-Kit AVG % Activity at Specific Concentration [2, 15]: 100%
c-Kit Fold [2]: 2.30
IC50 [3]: 180 nM
VEGFR-2 AVG % Activity at Specific Concentration [3, 4]: −4%
VEGFR-2 AVG % Activity at Specific Concentration [3, 5]: 12%
VEGFR-2 AVG % Activity at Specific Concentration [3, 6]: 56%
VEGFR-2 AVG % Activity at Specific Concentration [3, 7]: 88%
VEGFR-2 AVG % Activity at Specific Concentration [3, 8]: 92%
VEGFR-2 AVG % Activity at Specific Concentration [3, 9]: 86%
VEGFR-2 AVG % Activity at Specific Concentration [3, 10]: −6%
VEGFR-2 AVG % Activity at Specific Concentration [3, 11]: −4%
VEGFR-2 AVG % Activity at Specific Concentration [3, 12]: 35%
VEGFR-2 AVG % Activity at Specific Concentration [3, 13]: 89%
VEGFR-2 AVG % Activity at Specific Concentration [3, 14]: 96%
VEGFR-2 AVG % Activity at Specific Concentration [3, 15]: 97%
VEGFR-2 Fold [3]: 3.67
SMILES: COCCOCCOCCOCCNC(=O)c1c(C)[nH]c(/C=C2\C(=O)Nc3ccc(F)cc32)c1C [mPEG4-semaxanib, (Z)-5-((5-fluoro-2-oxoindolin-3-ylidene)methyl)-2,4-dimethyl-1H-pyrrole-3-mPEG4-amide]
